{"source": "patent US20210277441A1", "about": "“METHOD OF SELECTING A POLYPEPTIDE OF INTEREST” (IMPERIAL COLLEGE INNOVATIONS LIMITED, priority 2018, published 2021)", "key": {"[1]": {"target": "Myxococcus stipitatus imine reductase (MsIRED) variant MsIRED-c (best previously described NADH-dependent variant, 5 residue substitutions) (Myxococcus stipitatus, UniProt L7U9F5)", "assay": "Kinetics of MsIRED-c (best previously described NADH-dependent variant), 2-methylpyrroline reduction with NADH", "type": "biochemical", "conditions": "cofactor NADH (0.25 mM); enzyme 1.2675 uM"}, "[2]": {"target": "Enterobacter cloacae nitroreductase (EntNFSB) variant EntNFSB-s1, S40A/T41I/F124A, SEQ ID NO: 38 (Enterobacter cloacae, UniProt Q01234, F124A/S40A/T41I)", "sequence (Q01234 whole entry S40A/T41I/F124A)": "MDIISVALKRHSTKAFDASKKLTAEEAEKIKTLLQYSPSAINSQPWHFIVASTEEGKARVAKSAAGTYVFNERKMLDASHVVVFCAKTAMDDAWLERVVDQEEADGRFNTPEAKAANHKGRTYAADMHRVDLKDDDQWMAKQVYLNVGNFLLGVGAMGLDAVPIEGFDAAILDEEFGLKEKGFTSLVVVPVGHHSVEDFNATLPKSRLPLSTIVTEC", "assay": "Kinetics of evolved EntNFSB-s1, 2-nitrobenzoic acid reduction with NADH", "conditions": "cofactor NADH; enzyme 1 uM"}, "[3]": {"target": "Enterobacter cloacae nitroreductase (EntNFSB) variant EntNFSB-s2, T41L/Y68L/F124L, SEQ ID NO: 40 (Enterobacter cloacae, UniProt Q01234, F124L/T41L/Y68L)", "sequence (Q01234 whole entry T41L/Y68L/F124L)": "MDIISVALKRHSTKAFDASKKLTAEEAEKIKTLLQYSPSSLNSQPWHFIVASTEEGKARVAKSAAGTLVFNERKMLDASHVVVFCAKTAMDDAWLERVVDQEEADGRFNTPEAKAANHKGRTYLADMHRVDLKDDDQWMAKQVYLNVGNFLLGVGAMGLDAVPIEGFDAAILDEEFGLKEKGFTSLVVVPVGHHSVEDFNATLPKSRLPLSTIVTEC", "type": "biochemical", "conditions": "cofactor NADH; enzyme 1 uM"}, "[4]": {"tested_on": "AL cells", "assay": "1H NMR analysis of fermentation broth of anaerobic cultures", "type": "cell-based, Escherichia coli", "conditions": "no exogenous substrate"}, "[5]": {"tested_on": "LS1 strain (ΔadhE ΔldhA double mutant) cells", "assay": "Metabolic complementation (anaerobic growth recovery) of LS1/AL strain", "type": "cell-based, Escherichia coli", "conditions": "LS1, no exogenous substrate", "protocol": "(§1) The LS1 mutant strain and the parental BW25113 strain were transformed with the desired plasmid and overnight pre-cultures were grown aerobically in 15 mL Falcon tubes with M9 media (0.4% glucose). These pre-cultures were used to inoculate 10 mL Hungate tubes with M9 medium (0.4% glucose) supplemented with 100 μg/mL ampicillin, 1 mM IPTG and with or without the specific substrate of the dehydrogenase under anaerobic conditions at 37° C. Metabolic complementation was assessed by measuring the optical density at 600 nm every two hours during daytime."}, "[6]": {"tested_on": "LS5 strain", "assay": "Metabolic complementation (anaerobic growth) of quadruple mutant", "type": "cell-based, Escherichia coli", "protocol": "as §1\nSince in the triple mutants the non-deleted transhydrogenase could still be supporting anaerobic growth under anaerobic fermentation conditions when complemented with an NADPH-dependent oxidoreductase by generating oxidized NAD, the inventors generated a quadruple mutant where adhE, ldhA, sthA and pntA genes were deleted (LS5 strain, FIG. 11)."}}, "data": [{"compound": "CC1=NCCC1", "note": "[2-methylpyrroline, 2-methyl-1-pyrroline]", "values": [{"measurement": "Km", "setting": "[1]", "result": 41.8, "unit": "mM"}, {"measurement": "kcat", "setting": "[1]", "result": 1.993, "unit": "s⁻¹"}]}, {"compound": "O=C(O)c1ccccc1[N+](=O)[O-]", "note": "[2-nitrobenzoic acid]", "values": [{"measurement": "kcat", "setting": "[2]", "result": 0.0195, "unit": "s⁻¹"}]}, {"compound": "O=[N+]([O-])c1ccc(CO)cc1", "note": "[4-nitrobenzyl alcohol]", "values": [{"measurement": "Km", "setting": "[3]", "result": 1.11, "unit": "mM"}, {"measurement": "kcat", "setting": "[3]", "result": 0.0725, "unit": "s⁻¹"}]}, {"compound": "pLS1: pUC19 with ADH NADH-dependent from Escherichia coli (adhE)", "values": [{"measurement": "Acetate concentration", "setting": "[4]", "result": 12.1}, {"measurement": "Ethanol concentration", "setting": "[4]", "result": 13.8}, {"measurement": "Formate concentration", "setting": "[4]", "result": 20.7}, {"measurement": "Lactate concentration", "setting": "[4]", "result": 0}, {"measurement": "Succinate concentration", "setting": "[4]", "result": 5.2}, {"measurement": "anaerobic growth recovery", "setting": "[5]", "result": "restoration of ability to grow anaerobically"}, {"measurement": "anaerobic growth", "setting": "[6]", "result": "anaerobic growth is restored"}]}]}
